IC50 data for 27 molecules are collected here from US9718819B2 (Merck Sharp & Dohme Corp., priority 2012, dated 2017).

pIC50: −log10 of the molar value.

In this assay the target is HIV-1 RT wild-type enzyme (Human immunodeficiency virus type 1 group M subtype B (isolate HXB2) (HIV-1), UniProt P04585). Nature of the assay: HIV-1 reverse transcriptase inhibitory activity (RT polymerase assay). The format is biochemical. To be noted: HIV-1 RT wild-type enzyme 83 pM; RNA-dependent DNA polymerase activity; read-out: IC50. An outline of the steps:
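Enzyme and compound were preincubated 30 min at room temperature, then RNA/DNA hybrid (16.6 nM final; HCV-derived RNA, biotinylated primer) plus 2 μM dNTPs and 66.6 nM Ru-dUTP added, 90 min at 37 °C. Avidin capture and ECL counting; percent inhibition relative to DMSO (0%) and 1 μM efavirenz (100%), four-parameter IC50 fit.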
As a reminder, the pIC50 is the negative decadic logarithm of the IC50, by convention in mol/L. Take `N#Cc1cc(Cl)cc(Oc2c(C(F)(F)F)ncn(Cc3cnc(-c4ccccc4)[nH]c3=O)c2=O)c1` [Example 149, 3-chloro-5-((6-oxo-1-((6-oxo-2-phenyl-1,6-dihydropyrimidin-5-yl)methyl)-4-(trifluoromethyl)-1,6-dihydropyrimidin-5-yl)oxy)benzonitrile]: the pIC50 is 7.85.

In the case of `N#Cc1cc(Cl)cc(Oc2c(C(F)(F)F)ncn(Cc3cnc(-c4cccc(F)c4)[nH]c3=O)c2=O)c1` [Example 150, 3-chloro-5-((1-((2-(3-fluorophenyl)-6-oxo-1,6-dihydropyrimidin-5-yl)methyl)-6-oxo-4-(trifluoromethyl)-1,6-dihydropyrimidin-5-yl)oxy)benzonitrile], the pIC50 was 8.05.

Turning to `N#Cc1cc(Cl)cc(Oc2c(C(F)(F)F)ncn(Cc3cnc(-c4ccc(Cl)cc4)[nH]c3=O)c2=O)c1` [Example 151, 3-chloro-5-((1-((2-(4-chlorophenyl)-6-oxo-1,6-dihydropyrimidin-5-yl)methyl)-6-oxo-4-(trifluoromethyl)-1,6-dihydropyrimidin-5-yl)oxy)benzonitrile], the pIC50 was 7.55.

Take `N#Cc1cc(Cl)cc(Oc2c(C(F)(F)F)ncn(Cc3cnc(-c4ccc(Cl)nc4)[nH]c3=O)c2=O)c1` [Example 152, 3-chloro-5-((1-((2-(6-chloropyridin-3-yl)-6-oxo-1,6-dihydropyrimidin-5-yl)methyl)-6-oxo-4-(trifluoromethyl)-1,6-dihydropyrimidin-5-yl)oxy)benzonitrile]: the pIC50 is 7.49.

`N#Cc1cc(Cl)cc(Oc2c(C(F)(F)F)ncn(Cc3cnc(-c4ccc(OC(F)(F)F)cc4)[nH]c3=O)c2=O)c1` [Example 153, 3-chloro-5-((6-oxo-1-((6-oxo-2-(4-(trifluoromethoxy)phenyl)-1,6-dihydropyrimidin-5-yl)methyl)-4-(trifluoromethyl)-1,6-dihydropyrimidin-5-yl)oxy)benzonitrile]: the negative logarithm of the IC50 (pIC50) was 7.48.

`N#Cc1cc(Cl)cc(Oc2c(C(F)(F)F)ncn(Cc3cnc(C(N)=O)[nH]c3=O)c2=O)c1` [Example 154, 5-((5-(3-chloro-5-cyanophenoxy)-6-oxo-4-(trifluoromethyl)pyrimidin-1(6H)-yl)methyl)-6-oxo-1,6-dihydropyrimidine-2-carboxamide]: the negative logarithm of the IC50 (pIC50) was 7.38.

As for `N#Cc1cc(Cl)cc(Oc2c(C(F)(F)F)ncn(Cc3cnc(C#N)[nH]c3=O)c2=O)c1` [Example 155, 5-((5-(3-chloro-5-cyanophenoxy)-6-oxo-4-(trifluoromethyl)pyrimidin-1(6H)-yl)methyl)-6-oxo-1,6-dihydropyrimidine-2-carbonitrile], the pIC50 is 7.03.

With `CC(=O)c1ncc(Cn2cnc(C(F)(F)F)c(Oc3cc(Cl)cc(C#N)c3)c2=O)c(=O)[nH]1` [Example 156, 3-((1-((2-acetyl-6-oxo-1,6-dihydropyrimidin-5-yl)methyl)-6-oxo-4-(trifluoromethyl)-1,6-dihydropyrimidin-5-yl)oxy)-5-chlorobenzonitrile], the negative-log IC50 (pIC50) was 7.62.

Take `N#Cc1cc(Cl)cc(Oc2c(C(F)(F)F)ncn(Cc3cnc(C(F)F)[nH]c3=O)c2=O)c1` [Example 157, 3-chloro-5-((1-((2-(difluoromethyl)-6-oxo-1,6-dihydropyrimidin-5-yl)methyl)-6-oxo-4-(trifluoromethyl)-1,6-dihydropyrimidin-5-yl)oxy)benzonitrile]: the pIC50 was 7.49.

For `N#Cc1cc(Cl)cc(Oc2c(C(F)(F)F)ncn(Cc3cnc(-c4ccnc5[nH]ccc45)[nH]c3=O)c2=O)c1` [Example 158, 3-chloro-5-((6-oxo-1-((6-oxo-2-(1H-pyrrolo[2,3-b]pyridin-4-yl)-1,6-dihydropyrimidin-5-yl)methyl)-4-(trifluoromethyl)-1,6-dihydropyrimidin-5-yl)oxy)benzonitrile], the pIC50 was 7.96.

Regarding `N#Cc1cc(Cl)cc(Oc2c(C(F)(F)F)ncn(Cc3cnc(-c4ccc(OC(F)F)cc4)[nH]c3=O)c2=O)c1` [Example 159, 3-chloro-5-((1-((2-(4-(difluoromethoxy)phenyl)-6-oxo-1,6-dihydropyrimidin-5-yl)methyl)-6-oxo-4-(trifluoromethyl)-1,6-dihydropyrimidin-5-yl)oxy)benzonitrile], the pIC50 is 7.77.

Take `N#Cc1cc(Cl)cc(Oc2c(C(F)F)ncn(Cc3ccc(=O)[nH]n3)c2=O)c1` [Example 160, 3-chloro-5-((4-(difluoromethyl)-6-oxo-1-((6-oxo-1,6-dihydropyridazin-3-yl)methyl)-1,6-dihydropyrimidin-5-yl)oxy)benzonitrile]: the pIC50 was 7.59.

For `N#Cc1cccc(Oc2c(C(F)(F)F)ncn(Cc3ccc(=O)[nH]n3)c2=O)c1F` [Example 161, 2-fluoro-3-(6-oxo-1-((6-oxo-1,6-dihydropyridazin-3-yl)methyl)-4-(trifluoromethyl)-1,6-dihydropyrimidin-5-yloxy)benzonitrile], the pIC50 is 7.62.

As for `N#Cc1cc(Cl)cc(Oc2c(OC(F)F)ncn(Cc3ccc(=O)[nH]n3)c2=O)c1` [Example 162, 3-chloro-5-(4-(difluoromethoxy)-6-oxo-1-((6-oxo-1,6-dihydropyridazin-3-yl)methyl)-1,6-dihydropyrimidin-5-yloxy)benzonitrile], the negative-log IC50 (pIC50) is 7.10.

Turning to `N#Cc1cc(Oc2c(C(F)(F)F)ncn(Cc3ccc(=O)[nH]n3)c2=O)cc(OC(F)F)c1` [Example 163, 3-(difluoromethoxy)-5-(6-oxo-1-((6-oxo-1,6-dihydropyridazin-3-yl)methyl)-4-(trifluoromethyl)-1,6-dihydropyrimidin-5-yloxy)benzonitrile], the pIC50 is 7.66.

Consider `Cc1c(C#N)cc(F)cc1Oc1c(C(F)(F)F)ncn(Cc2ccc(=O)[nH]n2)c1=O` [Example 164, 5-fluoro-2-methyl-3-(6-oxo-1-((6-oxo-1,6-dihydropyridazin-3-yl)methyl)-4-(trifluoromethyl)-1,6-dihydropyrimidin-5-yloxy)benzonitrile], for which the negative logarithm of the IC50 (pIC50) was 8.15.

Regarding `N#Cc1cccc(Oc2c(C(F)(F)F)ncn(Cc3cc(-c4ccc(F)cc4)c(=O)[nH]n3)c2=O)c1F` [Example 165, 2-fluoro-3-((1-((5-(4-fluorophenyl)-6-oxo-1,6-dihydropyridazin-3-yl)methyl)-6-oxo-4-(trifluoromethyl)-1,6-dihydropyrimidin-5-yl)oxy)benzonitrile], the pIC50 was 8.52.

On to `N#Cc1cc(Cl)cc(Oc2c(OC(F)F)ncn(Cc3cc(-c4ccc(F)cc4)c(=O)[nH]n3)c2=O)c1` [Example 166], for which the pIC50 is 8.52.

`N#Cc1cc(Oc2c(C(F)(F)F)ncn(Cc3cc(-c4ccc(F)cc4)c(=O)[nH]n3)c2=O)cc(OC(F)F)c1` [Example 167, 3-(difluoromethoxy)-5-((1-((5-(4-fluorophenyl)-6-oxo-1,6-dihydropyridazin-3-yl)methyl)-6-oxo-4-(trifluoromethyl)-1,6-dihydropyrimidin-5-yl)oxy)benzonitrile]: the pIC50 was 8.22.

In the case of `Cc1c(C#N)cc(F)cc1Oc1c(C(F)(F)F)ncn(Cc2cc(-c3ccc(F)cc3)c(=O)[nH]n2)c1=O` [Example 168, 5-fluoro-3-((1-((5-(4-fluorophenyl)-6-oxo-1,6-dihydropyridazin-3-yl)methyl)-6-oxo-4-(trifluoromethyl)-1,6-dihydropyrimidin-5-yl)oxy)-2-methylbenzonitrile], the negative logarithm of the IC50 (pIC50) was 8.30.

For `Cc1ncn(Cc2cc(-c3ccc(F)cc3)c(=O)[nH]n2)c(=O)c1Oc1cc(Cl)cc(C#N)c1` [Example 169, 3-chloro-5-((1-((5-(4-fluorophenyl)-6-oxo-1,6-dihydropyridazin-3-yl)methyl)-4-methyl-6-oxo-1,6-dihydropyrimidin-5-yl)oxy)benzonitrile], the negative logarithm of the IC50 (pIC50) was 8.40.

As to `CC(F)(F)c1ncn(Cc2cc(-c3ccc(F)cc3)c(=O)[nH]n2)c(=O)c1Oc1cc(Cl)cc(C#N)c1` [Example 170, 3-chloro-5-((4-(1,1-difluoroethyl)-1-((5-(4-fluorophenyl)-6-oxo-1,6-dihydropyridazin-3-yl)methyl)-6-oxo-1,6-dihydropyrimidin-5-yl)oxy)benzonitrile], the pIC50 was 8.30.

In the case of `CC(F)(F)c1ncn(Cc2cc(-c3ccc(F)cc3)c(=O)[nH]n2)c(=O)c1Oc1cccc(C#N)c1F` [Example 171, 3-((4-(1,1-difluoroethyl)-1-((5-(4-fluorophenyl)-6-oxo-1,6-dihydropyridazin-3-yl)methyl)-6-oxo-1,6-dihydropyrimidin-5-yl)oxy)-2-fluorobenzonitrile], the pIC50 was 8.52.

In the case of `N#Cc1cc(Cl)cc(Oc2c(C(F)(F)F)ccn(Cc3cc(C(F)F)n[nH]c3=O)c2=O)c1` [Example 172, 3-chloro-5-((1-((6-(difluoromethyl)-3-oxo-2,3-dihydropyridazin-4-yl)methyl)-2-oxo-4-(trifluoromethyl)-1,2-dihydropyridin-3-yl)oxy)benzonitrile], the pIC50 was 8.30.

In the case of `N#Cc1cc(Cl)cc(Oc2c(C(F)F)ncn(Cc3cc(C(F)F)n[nH]c3=O)c2=O)c1` [Example 173, 3-chloro-5-((4-(difluoromethyl)-1-((6-(difluoromethyl)-3-oxo-2,3-dihydropyridazin-4-yl)methyl)-6-oxo-1,6-dihydropyrimidin-5-yl)oxy)benzonitrile], the negative logarithm of the IC50 (pIC50) is 8.22.

Consider `N#Cc1cccc(Oc2c(C(F)(F)F)ncn(Cc3cc(C(F)F)n[nH]c3=O)c2=O)c1F` [Example 174, 3-((1-((6-(difluoromethyl)-3-oxo-2,3-dihydropyridazin-4-yl)methyl)-6-oxo-4-(trifluoromethyl)-1,6-dihydropyrimidin-5-yl)oxy)-2-fluorobenzonitrile], for which the pIC50 is 8.30.

For `CC(F)(F)c1ncn(Cc2cc(C(F)F)n[nH]c2=O)c(=O)c1Oc1cc(Cl)cc(C#N)c1` [Example 175, 3-chloro-5-((4-(1,1-difluoroethyl)-1-((6-(difluoromethyl)-3-oxo-2,3-dihydropyridazin-4-yl)methyl)-6-oxo-1,6-dihydropyrimidin-5-yl)oxy)benzonitrile], the pIC50 was 8.52.
